The results in this text go back to patent publication US7494997B2, “Amide derivative” (Nippon Shinyaku Co., Ltd., priority 2002, dated 2009).

Molecules are shown by their SMILES. Where two headings read alike, the source gives them in different places.

The subject of one data set is K562 cells. In words: Cell growth inhibitory effect, K562 cells (WST-8, 72 hours). To be noted: for IC50: read-out: K562 cells (IC50 value: μM); for Ratio (U937 cells/K562 cells): ratio of IC50 values U937 cells/K562 cells.
The next data set relates to U937 cells. In words: Cell growth inhibitory effect, U937 cells (WST-8, 72 hours). To be noted: Homo sapiens, U-937, 72 h, read-out: U937 cells (IC50 value: μM). In general terms: Tetrazolium dyes change colour on reduction, which living cells bring about.
The mark [1] stands for this setting: BCR-ABL positive K562 cells, 72 hours, cell growth inhibition.

One may read the melting point as the temperature of the solid-liquid transition. A word on the IC50: it is the point on the concentration scale where inhibition reaches its midpoint.

Turning to `Cc1ccc(NC(=O)c2ccc(CN3CCN(C)CC3)c(Br)c2)cc1Nc1nccc(-c2cncnc2)n1.Cl`, the melting point was 184 to 186 °C (dec.).

Compound `Cc1ccc(NC(=O)c2ccc(CN3CCN(C)CC3)c(C(F)(F)F)c2)cc1Nc1nccc(-c2cncc(Br)c2)n1.Cl` returned a melting point of 184 to 187 °C.

For `CS(=O)(=O)O.Cc1ccc(NC(=O)c2ccc(CN3CCN(C)CC3)c(C(F)(F)F)c2)cc1Nc1nccc(-c2cncnc2)n1`, the melting point lay within 171 to 173 °C.

As for `Cc1ccc(NC(=O)c2ccc(CN3CCN(C)CC3)c(Br)c2)cc1Nc1cncc(-c2cccnc2)c1` (hydrate or solvate) [Example 17, 3-bromo-4-(4-methylpiperazin-1-ylmethyl)-N-{4-methyl-3-[3-(3-pyridyl)pyridin-5-ylamino]phenyl}benzamide], the melting point lay in the range of 139 to 141 °C.

On to `Cc1ccc(NC(=O)c2ccc(CN3CCN(C)CC3)c(Br)c2)cc1Nc1cncc(-c2cccnc2)n1` (hydrate or solvate) [Example 19, 3-bromo-4-(4-methylpiperazin-1-ylmethyl)-N-{4-methyl-3-[2-(3-pyridyl)pyrazin-6-ylamino]phenyl}benzamide], for which the melting point is 192 to 193 °C.

Regarding `Cc1ccc(NC(=O)c2ccc(CN3CCN(C)CC3)c(Br)c2)cc1Nc1nncc(-c2cccnc2)n1` (hydrate or solvate) [Example 20, 3-bromo-4-(4-methylpiperazin-1-ylmethyl)-N-{4-methyl-3-[5-(3-pyridyl)-1,2,4-triazin-3-ylamino]phenyl}benzamide], the melting point fell in the range of 219 to 221 °C.

With `Cc1ccc(NC(=O)c2ccc(CN3CCN(C)CC3)c([N+](=O)[O-])c2)cc1Nc1nccc(-c2cccnc2)n1` (hydrate or solvate) [Example 22, 4-(4-methylpiperazin-1-ylmethyl)-3-nitro-N-{4-methyl-3-[4-(3-pyridyl)pyrimidin-2-ylamino]phenyl}benzamide], the melting point was 184 to 186 °C.

As to `CCN1CCN(Cc2ccc(C(=O)Nc3ccc(C)c(Nc4nccc(-c5cccnc5)n4)c3)cc2Br)CC1` (hydrate or solvate) [Example 27, 3-bromo-4-(4-ethylpiperazin-1-ylmethyl)-N-{4-methyl-3-[4-(3-pyridyl)pyrimidin-2-ylamino]phenyl}benzamide], the melting point was in the range of 202 to 203 °C.

With `Cc1ccc(NC(=O)c2ccc(CN3CCN(C)CC3)c(Br)c2)cc1Nc1nccc(-c2cccnc2)n1` [Example 1, 3-bromo-4-(4-methylpiperazin-1-ylmethyl)-N-{4-methyl-3-[4-(3-pyridyl)pyrimidin-2-ylamino]phenyl}benzamide], the melting point is 202 to 203 °C (dec.). The half-inhibitory concentration (IC50) with K562 cells (Homo sapiens, K562, 72 h) came to 0.0022 µM. For the same compound, the 50% inhibitory concentration (IC50) in the data set on U937 cells was 4.8 µM.

Consider `Cc1ccc(NC(=O)c2ccc(CN3CCN(C)CC3)c(F)c2)cc1Nc1nccc(-c2cccnc2)n1` [Example 4, 3-fluoro-4-(4-methylpiperazin-1-ylmethyl)-N-{4-methyl-3-[4-(3-pyridyl)pyrimidin-2-ylamino]phenyl}benzamide], for which the melting point is 197 to 199 °C (dec.). Further, the IC50 in the data set on K562 cells (Homo sapiens, K562, 72 h) came to 0.033 µM. Besides, the IC50 in the data set with U937 cells was found to be 12.4 µM.

As to `Cc1ccc(NC(=O)c2ccc(CN3CCN(C)CC3)c(C(F)(F)F)c2)cc1Nc1nccc(-c2cccnc2)n1` [Example 5, 4-(4-methylpiperazin-1-ylmethyl)-3-trifluoromethyl-N-{4-methyl-3-[4-(3-pyridyl)pyrimidin-2-ylamino]phenyl}benzamide], the melting point was 182 to 183 °C (dec.). For the same compound, the IC50 in the data set with K562 cells (Homo sapiens, K562, 72 h) came to 0.0008 µM. Besides, the IC50 in the data set with U937 cells was 3.99 µM.

Consider `Cc1ccc(NC(=O)c2ccc(CN3CCN(C)CC3)c(C(F)(F)F)c2)cc1Nc1nccc(-c2cncnc2)n1` [Example 6, 4-(4-methylpiperazin-1-ylmethyl)-3-trifluoromethyl-N-{4-methyl-3-[4-(5-pyrimidinyl)pyrimidin-2-ylamino]phenyl}benzamide], for which the melting point was 231 to 233 °C (dec.). The IC50 with K562 cells (Homo sapiens, K562, 72 h) is 0.0005 µM. Moreover, in the data set on U937 cells, the IC50 came out at 5.39 µM.

In the case of `Cc1ccc(NC(=O)c2ccc(CN3CCN(C)CC3)c(Br)c2)cc1Nc1nccc(-c2ccc(Cl)nc2)n1` [Example 8, 3-bromo-4-(4-methylpiperazin-1-ylmethyl)-N-{3-[4-(6-chloropyridin-3-yl)pyrimidin-2-ylamino]-4-methylphenyl}benzamide], the melting point is 219 to 222 °C (dec.).

With `Cc1ccc(NC(=O)c2ccc(CN3CCN(C)CC3)c(Br)c2)cc1Nc1nccc(-c2cccnn2)n1` [Example 12, 3-bromo-4-(4-methylpiperazin-1-ylmethyl)-N-{4-methyl-3-[4-(3-pyridazinyl)pyrimidin-2-ylamino]phenyl}benzamide], the melting point is 185 to 187 °C (dec.).

In the case of `Cc1ccc(NC(=O)c2ccc(CN3CCN(C)CC3)c(Br)c2)cc1Nc1cc(-c2cccnc2)ccn1` [Example 14, 3-bromo-4-(4-methylpiperazin-1-ylmethyl)-N-{4-methyl-3-[4-(3-pyridyl)pyridin-2-ylamino]phenyl}benzamide], the melting point was 244 to 245 °C (dec.). Further, in the data set on K562 cells (Homo sapiens, K562, 72 h), the IC50 was determined as 0.003 µM. For the same compound, the “Ratio (U937 cells/K562 cells)” value in the data set on K562 cells was greater than 3333.3. In the data set with U937 cells, the IC50 is greater than 10 µM.

Consider `Cc1ccc(NC(=O)c2ccc(CN3CCN(C)CC3)c(Br)c2)cc1Nc1cc(-c2cncnc2)ccn1` [Example 15, 3-bromo-4-(4-methylpiperazin-1-ylmethyl)-N-{4-methyl-3-[4-(5-pyrimidinyl)pyridin-2-ylamino]phenyl}benzamide], for which the melting point was 244 to 246 °C (dec.). For the same compound, the IC50 with K562 cells (Homo sapiens, K562, 72 h) was 0.0048 µM. For the same compound, the “Ratio (U937 cells/K562 cells)” value with K562 cells is reported as 1895.8. In the data set on U937 cells, the IC50 is 9.1 µM.

`Cc1ccc(NC(=O)c2ccc(CN3CCN(C)CC3)c(Br)c2)cc1Nc1cccc(-c2cccnc2)c1` [Example 18, 3-bromo-4-(4-methylpiperazin-1-ylmethyl)-N-{4-methyl-3-[3-(3-pyridyl)phenylamino]phenyl}benzamide] displayed a melting point of 174 to 175 °C.

On to `Cc1ccc(NC(=O)c2ccc(CN3CCN(C)CC3)c(Br)c2)cc1Nc1cncc(-c2cccnc2)n1` [Example 19, 3-bromo-4-(4-methylpiperazin-1-ylmethyl)-N-{4-methyl-3-[2-(3-pyridyl)pyrazin-6-ylamino]phenyl}benzamide], for which the IC50 in the data set on K562 cells (Homo sapiens, K562, 72 h) came to 0.06 µM; in the data set with U937 cells, 2.4 µM. For the same compound, the “Ratio (U937 cells/K562 cells)” value with K562 cells worked out at 40.0.

For `Cc1ccc(NC(=O)c2ccc(CN3CCN(C)CC3)c(Br)c2)cc1Nc1nncc(-c2cccnc2)n1` [Example 20, 3-bromo-4-(4-methylpiperazin-1-ylmethyl)-N-{4-methyl-3-[5-(3-pyridyl)-1,2,4-triazin-3-ylamino]phenyl}benzamide], the IC50 came out at 0.015 µM in the data set on K562 cells (Homo sapiens, K562, 72 h) and 1.82 µM in the data set with U937 cells. In addition, the “Ratio (U937 cells/K562 cells)” value in the data set on K562 cells is 121.3.

`Cc1cc(C(=O)Nc2ccc(C)c(Nc3nccc(-c4cccnc4)n3)c2)ccc1CN1CCN(C)CC1` [Example 21, 3-methyl-4-(4-methylpiperazin-1-ylmethyl)-N-{4-methyl-3-[4-(3-pyridyl)pyrimidin-2-ylamino]phenyl}benzamide] came in with a melting point of 192 to 193 °C. Besides, the IC50 in the data set on K562 cells (Homo sapiens, K562, 72 h) was 0.0053 µM. For the same compound, the “Ratio (U937 cells/K562 cells)” value in the data set on K562 cells is greater than 1886.8. Besides, in the data set on U937 cells, the IC50 was greater than 10 µM.

In the case of `Cc1ccc(NC(=O)c2ccc(CN3CCN(C)CC3)c([N+](=O)[O-])c2)cc1Nc1nccc(-c2cccnc2)n1` [Example 22, 4-(4-methylpiperazin-1-ylmethyl)-3-nitro-N-{4-methyl-3-[4-(3-pyridyl)pyrimidin-2-ylamino]phenyl}benzamide], the IC50 in the data set with K562 cells (Homo sapiens, K562, 72 h) turned out to be 0.0032 µM; in the data set with U937 cells, 6.56 µM. Also, the “Ratio (U937 cells/K562 cells)” value with K562 cells worked out at 2050.0.

Regarding `Cc1ccc(NC(=O)c2ccc(CN3CCN(C)CC3)c(C(=O)N(C)C)c2)cc1Nc1nccc(-c2cccnc2)n1` [Example 26, 3-(N,N-dimethylcarbamoyl)-4-(4-methylpiperazin-1-ylmethyl)-N-{4-methyl-3-[4-(3-pyridyl)pyrimidin-2-ylamino]phenyl}benzamide], the melting point was 210 to 214 °C (dec.).

Take `CCN1CCN(Cc2ccc(C(=O)Nc3ccc(C)c(Nc4nccc(-c5cccnc5)n4)c3)cc2Br)CC1` [Example 27, 3-bromo-4-(4-ethylpiperazin-1-ylmethyl)-N-{4-methyl-3-[4-(3-pyridyl)pyrimidin-2-ylamino]phenyl}benzamide]: the IC50 in the data set on K562 cells (Homo sapiens, K562, 72 h) is 0.00049 µM; in the data set with U937 cells it was 7.16 µM. Also, the “Ratio (U937 cells/K562 cells)” value in the data set on K562 cells turned out to be 14612.2.

Take `Cc1ccc(NC(=O)c2ccc(CN3CCCCC3)c(Br)c2)cc1Nc1nccc(-c2cccnc2)n1` [Example 32, 3-bromo-4-(piperidinomethyl)-N-{4-methyl-3-[4-(3-pyridyl)pyrimidin-2-ylamino]phenyl}benzamide]: the melting point fell in the range of 158 to 159 °C.

Regarding `Cc1ccc(NC(=O)c2ccc(CN3C[C@@H](C)N[C@@H](C)C3)c(Br)c2)cc1Nc1nccc(-c2cccnc2)n1` [Example 34, 3-bromo-4-(cis-3,5-dimethylpiperazin-1-ylmethyl)-N-{4-methyl-3-[4-(3-pyridyl)pyrimidin-2-ylamino]phenyl}benzamide], the melting point is 204 to 205 °C.

Regarding `Cc1ccc(NC(=O)c2ccc(CN3CCNCC3)c(Br)c2)cc1Nc1nccc(-c2cncnc2)n1` [Example 36, 3-bromo-4-(1-piperazinylmethyl)-N-{4-methyl-3-[4-(5-pyrimidinyl)pyrimidin-2-ylamino]phenyl}benzamide], in the data set on K562 cells (setting [1]), the IC50 was determined as 0.0041 µM.

On to `Cc1ccc(NC(=O)c2ccc(CN3CCNCC3)c(C(F)(F)F)c2)cc1Nc1nccc(-c2cncnc2)n1` [Example 38, 4-(1-piperazinylmethyl)-3-trifluoromethyl-N-{4-methyl-3-[4-(5-pyrimidinyl)pyrimidin-2-ylamino]phenyl}benzamide], for which the IC50 with K562 cells (setting [1]) was 0.00093 µM.
